Measurements taken from patent publication US20100298141A1, “SUBSTITUTED PYRIDINE N-OXIDE HERBICIDES” (E. I. DU PONT DE NEMOURS AND COMPANY, priority 2007, published 2010).

Experiments:
Assay in all cases: Test A pre-/postemergence greenhouse test
[1] = system: wheat; type: in vivo, Triticum aestivum; details: for Plant response rating, Wheat: 0 to 100 scale where 0 is no effect and 100 is complete control; for Wheat plant response rating: 0 to 100 scale
Description: (§1) Seeds of barnyardgrass (Echinochloa crus-galli), crabgrass (Digitaria sanguinalis), giant foxtail (Setaria faberi), morningglory (Ipomoea spp.), redroot pigweed (Amaranthus retroflexus), velvetleaf (Abutilon theophrasti), wheat (Triticum aestivum), and corn (Zea mays) were planted into a blend of loam soil and sand and treated preemergence with a directed soil spray using test compounds formulated in a non-phytotoxic solvent mixture which included a surfactant. At the same time these species were also treated with postemergence applications of test compounds formulated in the same manner. Plants ranged in height from two to ten cm and were in the one- to two-leaf stage for the postemergence treatment. Treated plants and untreated controls were maintained in a greenhouse for approximately ten days, after which time all treated plants were compared to untreated controls and visually evaluated for injury. […] A dash (-) response means no test results.

[2] = system: giant foxtail; type: in vivo, Setaria faberi; details: for Plant response rating, Foxtail, Giant: 0 to 100 scale where 0 is no effect and 100 is complete control; for Foxtail, Giant plant response rating: 0 to 100 scale
Description: as §1

[3] = system: morningglory; type: in vivo, Ipomoea spp.; details: for Plant response rating, Morningglory: 0 to 100 scale where 0 is no effect and 100 is complete control; for Morningglory plant response rating: 0 to 100 scale
Description: as §1

[4] = system: velvetleaf; type: in vivo, Abutilon theophrasti; details: for Plant response rating, Velvetleaf: 0 to 100 scale where 0 is no effect and 100 is complete control; for Velvetleaf plant response rating: 0 to 100 scale
Description: as §1

[5] = system: crabgrass; type: in vivo, Digitaria sanguinalis; details: for Plant response rating, Crabgrass, Large: 0 to 100 scale where 0 is no effect and 100 is complete control; for Crabgrass, Large plant response rating: 0 to 100 scale
Description: as §1

[6] = system: corn; type: in vivo, Zea mays; details: for Plant response rating, Corn: 0 to 100 scale where 0 is no effect and 100 is complete control; for Corn plant response rating: 0 to 100 scale
Description: as §1

[7] = system: redroot pigweed; type: in vivo, Amaranthus retroflexus; details: for Plant response rating, Pigweed: 0 to 100 scale where 0 is no effect and 100 is complete control; for Pigweed plant response rating: 0 to 100 scale
Description: as §1

[8] = system: barnyardgrass; type: in vivo, Echinochloa crus-galli; details: for Plant response rating, Barnyardgrass: 0 to 100 scale where 0 is no effect and 100 is complete control; for Barnyardgrass plant response rating: 0 to 100 scale
Description: as §1

[9] = Postemergence, 500 g ai/ha, 0 is no effect, 100 is complete control
[10] = Preemergence, 125 g ai/ha, 0 no effect, 100 complete control
[11] = Preemergence, 500 g ai/ha, 0 no effect, 100 complete control

SMILES | Plant response rating, Wheat ([1]; Postemergence, 125 g ai/ha) | Wheat plant response rating [1, 9] | Wheat plant response rating [1, 10] | Wheat plant response rating [1, 11] | Plant response rating, Foxtail, Giant ([2]; Postemergence, 125 g ai/ha) | Foxtail, Giant plant response rating [2, 9] | Foxtail, Giant plant response rating [2, 10] | Foxtail, Giant plant response rating [2, 11] | Plant response rating, Morningglory ([3]; Postemergence, 125 g ai/ha) | Morningglory plant response rating [3, 9] | Morningglory plant response rating [3, 10] | Morningglory plant response rating [3, 11] | Plant response rating, Velvetleaf ([4]; Postemergence, 125 g ai/ha) | Velvetleaf plant response rating [4, 9] | Velvetleaf plant response rating [4, 10] | Velvetleaf plant response rating [4, 11] | Plant response rating, Crabgrass, Large ([5]; Postemergence, 125 g ai/ha) | Crabgrass, Large plant response rating [5, 9] | Crabgrass, Large plant response rating [5, 10] | Crabgrass, Large plant response rating [5, 11] | also measured
CCCc1cc[n+]([O-])c(S(=O)(=O)Cc2c(C(F)(F)F)nn(C)c2OC(F)F)c1 [Compound 117] | 40 | 50 | 30 | 70 | 70 | 80 | 90 | 90 | 40 | 90 | 80 | 90 | 50 | 60 | 10 | 90 | 50 | 80 | 80 | 90 | Plant response rating, Corn ([6]; Postemergence, 125 g ai/ha): 0; Corn plant response rating [6, 9]: 40; Corn plant response rating [6, 10]: 20; Corn plant response rating [6, 11]: 60; Plant response rating, Pigweed ([7]; Postemergence, 125 g ai/ha): 60; Pigweed plant response rating [7, 9]: 80; Pigweed plant response rating [7, 10]: 100; Pigweed plant response rating [7, 11]: 100; Plant response rating, Barnyardgrass ([8]; Postemergence, 125 g ai/ha): 40; Barnyardgrass plant response rating [8, 9]: 80; Barnyardgrass plant response rating [8, 10]: 20; Barnyardgrass plant response rating [8, 11]: 90
Cn1nc(C(F)(F)F)c(C[S+]([O-])c2cc(C3CC3)cc[n+]2[O-])c1OCC(F)(F)F (stereo not drawn) [Compound 121] | 30 | 50 | 60 | 100 | 50 | 80 | 100 | 100 | 40 | 60 | 40 | 90 | 40 | 70 | 60 | 80 | 30 | 80 | 100 | 100 | Plant response rating, Corn ([6]; Postemergence, 125 g ai/ha): 20; Corn plant response rating [6, 9]: 60; Corn plant response rating [6, 10]: 60; Corn plant response rating [6, 11]: 90; Plant response rating, Pigweed ([7]; Postemergence, 125 g ai/ha): 60; Pigweed plant response rating [7, 9]: 70; Pigweed plant response rating [7, 10]: 100; Pigweed plant response rating [7, 11]: 100; Plant response rating, Barnyardgrass ([8]; Postemergence, 125 g ai/ha): 50; Barnyardgrass plant response rating [8, 9]: 70; Barnyardgrass plant response rating [8, 10]: 100; Barnyardgrass plant response rating [8, 11]: 100
Cn1nc(C(F)(F)F)c(CS(=O)(=O)c2cc(C3CC3)cc[n+]2[O-])c1OC(F)F [Compound 118] | 40 | 60 | 40 | 60 | 40 | 80 | 90 | 100 | 20 | 60 | 40 | 100 | 40 | 60 | 20 | 90 | 40 | 80 | 90 | 100 | Plant response rating, Corn ([6]; Postemergence, 125 g ai/ha): 0; Corn plant response rating [6, 9]: 0; Corn plant response rating [6, 10]: 0; Corn plant response rating [6, 11]: 20; Plant response rating, Pigweed ([7]; Postemergence, 125 g ai/ha): 50; Pigweed plant response rating [7, 9]: 80; Pigweed plant response rating [7, 10]: 100; Pigweed plant response rating [7, 11]: 100; Plant response rating, Barnyardgrass ([8]; Postemergence, 125 g ai/ha): 50; Barnyardgrass plant response rating [8, 9]: 70; Barnyardgrass plant response rating [8, 10]: 70; Barnyardgrass plant response rating [8, 11]: 100
